Values quoted from earlier work, collected in US20240216394A1, “GOLEXANOLONE FOR USE IN THE TREATMENT OF FATIGUE OR COGNITIVE IMPAIRMENT IN LIVER DISEASE PATIENTS” (Umecrine Cognition AB, priority 2021, published 2024).

Tests used:
[1] = tested on: PBC-related fatigue; conditions: patients suffering from PBC-related fatigue
[2] = tested on: rats following bile duct ligation (BDL)

Molecule | Benefit in PBC-related fatigue [1] | Effect on whole body fatigue [2]
CNCCC(Oc1ccc(C(F)(F)F)cc1)c1ccccc1 (stereo not shown) [Fluoxetine] | neither have proven beneficial | 
NC(=O)C[S+]([O-])C(c1ccccc1)c1ccccc1 (stereo not shown) [Modafinil] | neither have proven beneficial | 
Rituximab | neither have proven beneficial | 
dehydroepiandrosterone sulphate [DHEAS] |  | positive effect
